# Measured values taken from patent publication US7393812B2, “Methylidene mevalonates and their use as herbicides” (Dow AgroSciences LLC, priority 2004, dated 2008).
# How the values were obtained:
# Assay type in all cases: in vivo
# [1] = system: velvetleaf (Abutilon theophrasti, ABUTH); test: General herbicidal evaluation, postemergence; settings: 16 days after treatment
# From the text: (§1) Applications of methylidene mevalonate were made either to the foliage (postemergence) or soil (preemergence). Seeds of sunflower (Helianthus annus, HELAN), morningglory (Ipomoea hederacea, IPOHE) velvetleaf (Abutilon theophrasti, ABUTH), pigweed (Amaranthus spp., AMARE), barnyardgrass (Echinochloa crusgalli, ECHCG), giant foxtail (Setaria faberi, SETFA), wild oats (Avena fatua, AVEFA), and blackgrass (Alopecurus myosuroides, ALOMY) were planted in mineral soil (sandy clay loam, 51% sand, 26% silt, 23% clay, 2.8% O.M., pH 7.8) and Metro-mix (Bulk Sak, Inc., Malvern, Ark., USA) for preemergence and postemergence treatments, respectively. Pots receiving preemergence treatments were watered immediately following application. Prior to postemergence treatment, plants were grown in the greenhouse (16 h photoperiod, 27 C) and thinned to a density of 2 to 15 plants pot^−1, depending on species. At the time of postemergence applications, plants were 8-12 days old, 3 to 10 cm in height, and in the 1- to 3-true-leaf stage. Natural light in the greenhouse was supplemented with metal halide lights that provided an average photosynthetic photon flux of 500 μmol m^−2s^−1.
# (§2) A sample of sodium methylidene mevalonate was dissolved in 4 mL of distilled water followed by 10 mL of formulation stock “B” (200 mL isopropanol, 20 mL crop oil concentrate, 0.4 g Triton X-155 [Sigma Chemical Co., St. Louis, Mo. 62718], and 78 mL water). This was followed by three 1:1 (v/v) serial dilutions using formulation stock “C” (100 mL isopropanol, 10 mL crop oil concentrate, 0.2 g Triton X-155, 390 mL water, 485 mL acetone and 15 mL DMSO).
# (§3) Treatments were made at four different doses (4000, 2000, 1000, and 500 g ha^−1). For preemergence treatments, 1.75 mL of spray solution were applied to the soil surface in each pot using a glass Cornwall syringe fitted with a Teejet SS8001E flat-fan nozzle (Spraying Systems Co., Wheaton, Ill. 60189-7900). For postemergence applications, the foliage of the test plants was sprayed using a DeVilbiss atomizer (DeVilbiss Health Car, Inc., Somerset, Pa. 15501) driven by compressed air at a pressure of 22 kPa. Untreated controls were included.
# (§4) Pots were placed in the greenhouse following compound application. Pots from postemergence and preemergence were sub-irrigated and top-watered, respectively, as needed for the duration of the test. […]
# [2] = system: morningglory (Ipomoea hederacea, IPOHE); test: General herbicidal evaluation, postemergence; settings: 16 days after treatment
# From the text: as §1, §2, §3, §4
# [3] = system: wild oats (Avena fatua, AVEFA); test: General herbicidal evaluation, postemergence; settings: 16 days after treatment
# From the text: as §1, §2, §3, §4
# [4] = system: crabgrass (Digitaria sanguinalis, DIGSA); test: Post-emergent evaluation; settings: after 2 weeks
# Protocol: (§5) Seeds of the desired test plant species were planted in Grace-Sierra MetroMix® 306 planting mixture, which typically has a pH of 6.0 to 6.8 and an organic matter content of about 30 percent, in plastic pots with a surface area of 64 square centimeters. When required to ensure good germination and healthy plants, a fungicide treatment and/or other chemical or physical treatment was applied. The plants were grown for 7-21 days in a greenhouse with an approximate 15 hr photoperiod which was maintained at about 23-29° C. during the day and 22-28° C. during the night. Nutrients and water were added on a regular basis and supplemental lighting was provided with overhead metal halide 1000-Watt lamps as necessary. The plants were employed for testing when they reached the first or second true leaf stage.
# (§6) A weighed amount, determined by the highest rate to be tested, of each test compound was placed in a 20 mL glass vial and was dissolved in 4 mL of a 97:3 v/v (volume/volume) mixture of acetone and dimethyl sulfoxide (DMSO) to obtain concentrated stock solutions. […] The concentrated stock solutions obtained were diluted with an aqueous mixture containing acetone, water, isopropyl alcohol, DMSO, Atplus 411F crop oil concentrate, and Triton X-155 surfactant in a 48.5:39:10:1.5:1.0:0.02 v/v ratio to obtain spray solutions of known concentration. The solutions containing the highest concentration to be tested were prepared by diluting 2 mL aliquots of the stock solution with 13 mL of the mixture and lower concentrations were prepared by serial dilution of the stock solution. Approximately 1.5 mL aliquots of each solution of known concentration were sprayed evenly onto each of the test plant pots using a DeVilbiss atomizer driven by compressed air pressure of 2 to 4 psi ([…]) to obtain thorough coverage of each plant. Control plants were sprayed in the same manner with the aqueous mixture. In this test an application rate of 1 ppm results in the application of approximately 1 g/Ha.
# (§7) The treated plants and control plants were placed in a greenhouse as described above and watered by sub-irrigation to prevent wash-off of the test compounds. After 2 weeks the condition of the test plants as compared with that of the untreated plants was determined visually and scored on a scale of 0 to 100 percent where 0 corresponds to no injury and 100 corresponds to complete kill. Species abbreviations as described for Table I with the following additions: soybean (Glycine max, GLXMA), rape (Brassica napus, BRSNN), chickweed (Stellaria media, STEME), cocklebur (Xanthium strumarium XANST), lambsquarters (Chenopodium album, CHEAL), violet (Viola tricolor, VIOTR), bindweed (Polygonum convolvulus, POLCO), spurge (Euphorbia heterophylla, EPHHL), Canada thistle (Cirsium arvense, CIRAR), corn (Zea mays, ZEAMX), rice (Oryza sativa, ORYSA), wheat (Triticum aestivum, TRZAS), crabgrass (Digitaria sanguinalis, DIGSA), shattercane (Sorghum vulgare, SORVU) and yellow nutsedge (Cyperus esculentus, CYPES).
# (§8) By applying the well-accepted probit analysis as described by J. Berkson in Journal of the American Statistical […], 48, 565 (1953) and by D. Finney in “Probit Analysis” Cambridge University Press (1952), similar data can be used to calculate GR80 values, which are defined as growth reduction factors that correspond to the effective dose of herbicide required to kill or control 80 percent of a target plant. Species abbreviations are as previously defined.
# [5] = system: yellow nutsedge (Cyperus esculentus, CYPES); test: Post-emergent evaluation; settings: after 2 weeks
# Protocol: as §5, §6, §7, §8
structure (smiles),measurement,setting,value
"C=C(CO)C(C)(O)CC(=O)O (stereo not shown) [methylidene mevalonate, 3-hydroxy-4-(hydroxymethyl)-3-methylpent-4-enoic acid]",Visual Injury (%),"[1]; 0.5 kg ha^−1, ABUTH",40%
same,Visual Injury (%),"[1]; 1.0 kg ha^−1, ABUTH",60%
same,Visual Injury (%),"[1]; 2.0 kg ha^−1, ABUTH",60%
same,Visual Injury (%),"[1]; 4.0 kg ha^−1, ABUTH",65%
same,Visual Injury (%),"[2]; 0.5 kg ha^−1, IPOHE",60%
same,Visual Injury (%),"[2]; 1.0 kg ha^−1, IPOHE",60%
same,Visual Injury (%),"[2]; 2.0 kg ha^−1, IPOHE",65%
same,Visual Injury (%),"[2]; 4.0 kg ha^−1, IPOHE",75%
same,Visual Injury (%),"[3]; 0.5 kg ha^−1, AVEFA",40%
same,Visual Injury (%),"[3]; 1.0 kg ha^−1, AVEFA",60%
same,Visual Injury (%),"[3]; 2.0 kg ha^−1, AVEFA",60%
same,Visual Injury (%),"[3]; 4.0 kg ha^−1, AVEFA",85%
same,Postemergent % Control,[4]; spray concentration 125 ppm,0%
same,Postemergent % Control,[4]; spray concentration 250 ppm,10%
same,Postemergent % Control,[4]; spray concentration 500 ppm,50%
same,Postemergent % Control,[4]; spray concentration 1000 ppm,70%
same,Postemergent % Control,[4]; spray concentration 2000 ppm,80%
same,Postemergent % Control,[5]; spray concentration 125 ppm,30%
same,Postemergent % Control,[5]; spray concentration 250 ppm,70%
same,Postemergent % Control,[5]; spray concentration 500 ppm,90%
same,Postemergent % Control,[5]; spray concentration 1000 ppm,95%
same,Postemergent % Control,[5]; spray concentration 2000 ppm,95%
